The record followed here is ChEMBL document CHEMBL1201862, “PubChem BioAssay data set” (2004).

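Assay format: 96-well plates, 48-hour exposure. Here, GI50 denotes the concentration required for 50% inhibition of growth.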 The source made the active and inactive calls. Rule as the data show it: active = GI50 up to about 1.1 µM and inactive = higher. Some results are limits rather than exact numbers.

Among the test systems are K562; COLO 205; SK-MEL-2; HCT-15; RPMI-8226; SK-OV-3; Malme-3M; NCI-H522; CAKI-1; MDA-N; SW-620; HCT-116; DU-145; OVCAR-4; Hs-578T; SNB-78; DMS-273; M19-MEL; LXFL 529.
Assay in all cases: inhibition of tumour cell growth, NCI panel, 48 h

As for `C=C(C)CN(CC#N)CC(=C)C`, the GI50 in the assay with K562 was > 100 µM (inactive); in the assay on COLO 205, > 100 µM (inactive); in the assay with SK-MEL-2, > 100 µM (inactive); in the assay with HCT-15, greater than 100 µM; in the assay on RPMI-8226, > 100 µM (inactive); with SK-OV-3 it was > 100 µM (inactive). The GI50 in the assay on Malme-3M, in the assay on NCI-H522, in the assay with CAKI-1, with MDA-N, with SW-620 and in the assay with HCT-116 was > 100 µM (inactive) each time. Further, the values for the GI50 in the assay with DU-145, with OVCAR-4 and with Hs-578T were > 100 µM (inactive), > 100 µM (inactive) and 83.2 µM (inactive), respectively.

Take `O=C(O)c1ccc(O)c(/N=N/c2cc(S(=O)(=O)O)c3ccccc3c2O)c1`: the GI50 in the assay on K562 is > 100 µM (inactive); with COLO 205, 39.8 µM (inactive); in the assay on SK-MEL-2, > 10 µM (inactive); in the assay on HCT-15, greater than 10 µM; in the assay with RPMI-8226, > 100 µM (inactive); in the assay with SK-OV-3 it was > 10 µM (inactive). In addition, the GI50 is > 100 µM (inactive) with Malme-3M; > 100 µM (inactive) in the assay on SNB-78; > 100 µM (inactive) in the assay on DMS-273; 54.3 µM (inactive) with CAKI-1; 55.6 µM (inactive) with M19-MEL; > 100 µM (inactive) in the assay on SW-620. Besides, the results for the GI50 in the assay on HCT-116 and with OVCAR-4 were 20 µM (inactive) and > 100 µM (inactive), respectively.

In the case of `O=C(CC1(O)C(=O)Nc2ccc(Br)cc21)c1ccc(Cl)cc1Cl` (stereo not drawn), the GI50 in the assay on K562 is 39.6 µM (inactive); in the assay on COLO 205, 65.5 µM (inactive); with SK-MEL-2 it was 31.7 µM (inactive); with HCT-15 it was 69 µM; in the assay with RPMI-8226, 22.1 µM (inactive); in the assay on SK-OV-3, 79.1 µM (inactive). Also, the GI50 in the assay on Malme-3M was 63.7 µM (inactive); in the assay on NCI-H522 it was 25.1 µM (inactive); in the assay on SNB-78, 37.8 µM (inactive); in the assay on M19-MEL, 14.9 µM (inactive); in the assay on LXFL 529, 32.4 µM (inactive); in the assay on SW-620, 37.1 µM (inactive). In addition, the figures for the GI50 in the assay on HCT-116 and with OVCAR-4 were 31.8 µM (inactive) and 36.1 µM (inactive), respectively.

Consider `CNS(=O)(=O)NN(C)S(=O)(=O)c1ccc2ccccc2c1`, for which the GI50 with K562 is > 100 µM (inactive); in the assay with COLO 205 it was > 100 µM (inactive); in the assay with SK-MEL-2 it was > 100 µM (inactive); in the assay on HCT-15, greater than 100 µM; with RPMI-8226, > 100 µM (inactive); in the assay with SK-OV-3 it was > 100 µM (inactive). In addition, the GI50 in the assay with Malme-3M, with NCI-H522, with DMS-273, in the assay with CAKI-1, in the assay on M19-MEL and in the assay on LXFL 529 was > 100 µM (inactive) each time. Further, the GI50 with SW-620, in the assay with HCT-116 and with OVCAR-4 was > 100 µM (inactive) throughout.

Turning to `COc1cccc(OCC(=N/NC(=O)c2ccncc2)/N=C/c2cccnc2)c1`, the GI50 with K562 is > 100 µM (inactive); with COLO 205, > 100 µM (inactive); with SK-MEL-2, > 100 µM (inactive); in the assay with HCT-15, greater than 100 µM; in the assay with RPMI-8226, 68.2 µM (inactive); with SK-OV-3 it was > 100 µM (inactive). For the same molecule, the GI50 with Malme-3M, with NCI-H522, in the assay with CAKI-1, in the assay with MDA-N, in the assay on SW-620 and in the assay with HCT-116 was > 100 µM (inactive) in each case. In addition, the GI50 in the assay on DU-145, in the assay with OVCAR-4 and in the assay on Hs-578T was > 100 µM (inactive) throughout.

With `N#C/C(=C\c1cn(Cc2ccccc2)c2ccccc12)c1nn(-c2ccccc2)c(N)c1C#N`, the GI50 in the assay on K562 was 24.3 µM (inactive); in the assay on COLO 205, 20.1 µM (inactive); in the assay with SK-MEL-2 it was 4.65 µM (inactive); with HCT-15, 31.1 µM; in the assay on RPMI-8226 it was 19.8 µM (inactive); in the assay on SK-OV-3, 15.2 µM (inactive). Moreover, the GI50 with Malme-3M was 21.4 µM (inactive); with NCI-H522, 13.2 µM (inactive); in the assay with CAKI-1, 17.4 µM (inactive); in the assay with MDA-N, 23.2 µM (inactive); with SW-620, 14.8 µM (inactive); with HCT-116, 16.4 µM (inactive). Moreover, the GI50 was 11.1 µM (inactive) in the assay on DU-145, 3.24 µM (inactive) with OVCAR-4 and 25.6 µM (inactive) in the assay on Hs-578T.

Consider `S=C(/N=c1\sc(NCc2ccccc2)nc2sc3c(c12)CCN(N1CCc2c(sc4nc(NCc5ccccc5)s/c(=N\C(=S)NCc5ccccc5)c24)C1)C3)NCc1ccccc1`, for which the GI50 in the assay on K562 is 17.4 µM (inactive); in the assay on COLO 205 it was 32.1 µM (inactive); in the assay on SK-MEL-2, 58.3 µM (inactive); with HCT-15 it was 22.3 µM; with RPMI-8226 it was 14.6 µM (inactive); with SK-OV-3 it was 53.2 µM (inactive). The GI50 with Malme-3M is 70.3 µM (inactive); in the assay on NCI-H522, 37.7 µM (inactive); in the assay on CAKI-1, 21.9 µM (inactive); in the assay on MDA-N, 42.5 µM (inactive); with SW-620, 22.3 µM (inactive); in the assay with HCT-116, 7.74 µM (inactive). The figures for the GI50 in the assay on DU-145, in the assay with OVCAR-4 and in the assay on Hs-578T were 45 µM (inactive), 36.7 µM (inactive) and 54.3 µM (inactive), respectively.

In the case of `CC(=O)OCC1(C)C(O)CCC2(C)C1CCC1CC3CC12CCC3(O)CO` (stereo not drawn), the GI50 with K562 is > 100 µM (inactive); in the assay with COLO 205, > 100 µM (inactive); in the assay on SK-MEL-2 it was > 100 µM (inactive); in the assay on HCT-15, greater than 100 µM; with RPMI-8226, 47.5 µM (inactive); in the assay on SK-OV-3, > 100 µM (inactive). Besides, the GI50 in the assay with Malme-3M is > 100 µM (inactive); in the assay with NCI-H522, > 26.6 µM (inactive); in the assay on CAKI-1 it was 17.9 µM (inactive); with MDA-N, > 100 µM (inactive); in the assay on SW-620, > 95.7 µM (inactive); with HCT-116, 76 µM (inactive). Further, the GI50 with DU-145 is 42.6 µM (inactive); in the assay on OVCAR-4 it was > 87.5 µM (inactive); in the assay on Hs-578T, > 53.6 µM (inactive).

Turning to `Cc1c(C(=O)c2ccc(N)c3ccccc23)c2ccccc2n1CCN1CCOCC1`, the GI50 in the assay on K562 is 25.5 µM (inactive); in the assay on COLO 205 it was 27.5 µM (inactive); in the assay with SK-MEL-2 it was 18.6 µM (inactive); in the assay on HCT-15 it was 21 µM; in the assay with RPMI-8226, 23.6 µM (inactive); with SK-OV-3, 1.97 µM (inactive). Besides, the GI50 in the assay on Malme-3M was 18.3 µM (inactive); in the assay on NCI-H522 it was 6.82 µM (inactive); with CAKI-1, 7.85 µM (inactive); in the assay on MDA-N it was 16.3 µM (inactive); in the assay with SW-620, 26.1 µM (inactive); in the assay on HCT-116, 19.5 µM (inactive). Further, the GI50 in the assay with DU-145 was 31.1 µM (inactive); with OVCAR-4 it was 3.1 µM (inactive); in the assay with Hs-578T, 0.759 µM (active).

For the molecule `C/C(CC(=O)Nc1ccc(C)c(C)c1)=N\NC(N)=S`, the GI50 with K562, with COLO 205, with SK-MEL-2, with RPMI-8226, with SK-OV-3 and in the assay with Malme-3M was > 100 µM (inactive) throughout. In addition, the GI50 with NCI-H522, in the assay with SNB-78, in the assay with DMS-273, in the assay with LXFL 529, in the assay with SW-620 and in the assay on HCT-116 was > 100 µM (inactive) each time.

Take `Cn1c(=O)c(C(=O)NC23CC4CC(CC(C4)C2)C3)c(O)c2ccccc21`: the GI50 with K562 was > 100 µM (inactive); with COLO 205 it was 46.1 µM (inactive); with HCT-15, greater than 100 µM; with RPMI-8226, > 100 µM (inactive); in the assay with SK-OV-3 it was 20.9 µM (inactive); in the assay on Malme-3M it was 21.2 µM (inactive). Moreover, the GI50 with NCI-H522 is > 100 µM (inactive); in the assay with SNB-78, 43.3 µM (inactive); in the assay on DMS-273 it was 26.2 µM (inactive); with M19-MEL it was 49.8 µM (inactive); with LXFL 529 it was 59.4 µM (inactive); in the assay with SW-620, 56.1 µM (inactive). The GI50 in the assay on HCT-116 was 23.5 µM (inactive).

Take `COC(=O)/C=C(/C(=O)OC)c1c(C)cc2c(C)cc(C)cc(C)c1-2`: the GI50 in the assay on K562 is 4.45 µM (inactive); with COLO 205, 7.24 µM (inactive); in the assay with SK-MEL-2 it was 20 µM (inactive); with HCT-15 it was 4.56 µM; with RPMI-8226, 9.79 µM (inactive); in the assay on SK-OV-3, 21.5 µM (inactive). Besides, the GI50 in the assay on Malme-3M is 11.5 µM (inactive); in the assay on NCI-H522 it was 7.48 µM (inactive); in the assay with CAKI-1, 32.6 µM (inactive); in the assay with MDA-N, 2.4 µM (inactive); in the assay with SW-620, 7.18 µM (inactive); with HCT-116 it was 4.26 µM (inactive). The GI50 is 22.4 µM (inactive) in the assay with DU-145, 22.3 µM (inactive) in the assay with OVCAR-4 and 11 µM (inactive) in the assay with Hs-578T.

For the molecule `CSc1ccc2c(c1)N(CCCN(C)C)c1ccccc1S2`, the GI50 was 4.28 µM (inactive) in the assay on K562; 12.7 µM (inactive) in the assay with COLO 205; 15.6 µM (inactive) in the assay on SK-MEL-2; 15 µM in the assay on HCT-15; 12.2 µM (inactive) with RPMI-8226; 15.1 µM (inactive) in the assay on SK-OV-3. Moreover, the GI50 in the assay on Malme-3M was 9.16 µM (inactive); with NCI-H522, 12.8 µM (inactive); in the assay on CAKI-1, 8.67 µM (inactive); in the assay with MDA-N, 10.7 µM (inactive); with SW-620, 15.2 µM (inactive); in the assay on HCT-116, 12.7 µM (inactive). The GI50 with DU-145 is 15.6 µM (inactive); with OVCAR-4, 11.5 µM (inactive); in the assay on Hs-578T it was 11 µM (inactive).

Regarding `CS(=O)(=O)c1ccc(C2=C(c3ccccc3)C(=O)OC2)cc1` [ROFECOXIB], the GI50 is > 100 µM (inactive) in the assay on K562; > 100 µM (inactive) with COLO 205; > 100 µM (inactive) in the assay on SK-MEL-2; greater than 100 µM in the assay with HCT-15; > 100 µM (inactive) in the assay with RPMI-8226; > 100 µM (inactive) in the assay on SK-OV-3. In addition, the GI50 in the assay on Malme-3M, with NCI-H522, in the assay with CAKI-1, with MDA-N, in the assay on SW-620 and in the assay with HCT-116 was > 100 µM (inactive) each time. In addition, the GI50 with DU-145, in the assay on OVCAR-4 and in the assay with Hs-578T was > 100 µM (inactive) throughout.
